Measurements reported in US12486300B2, “Mithramycin oxime derivatives having increased selectivity and anti-cancer activity” (University of Kentucky Research Foundation, priority 2018, dated 2025).

Legend:
[1] = tested on: TC-32 cells (EWS-FLI1+) subcutaneously implanted; experiment: Efficacy studies in mouse xenografts (TC-32); assay type: in vivo, mice; settings: for Significant? survival vs. Vehicle: overall significance level 0.05
Protocol: Efficacy studies in mouse xenografts. TC-32 cells were suspended in 1:1 (v/v) media: Matrigel on ice and injected subcutaneously into the flank of female immunocompromised athymic nude NU/NU mice at a density of 1.0×10^6 cells per 100 μL. Mice with tumors of at least 75 mm^3 were randomly assigned to treatment groups, n=8-12 mice per group and n=6-10 mice per vehicle control treated group. Tumor volumes were monitored every 2-3 days and mice were euthanized once tumor volumes reached 1500 mm^3. In some experiments, tumors were allowed to grow to 20 mm in one direction prior to animals being removed from the study. Average tumor volume among the replicates were plotted, as well as survival plots, using GraphPad Prism 7.03 software. All animal studies were conducted under approved institutional animal care and use committee (IACUC) protocol.
Reference is made to FIGS. 3A-3G, which include data from an efficacy study involving exemplary compound MTM (20). TC-32 cells (EWS-FLI1+) were subcutaneously implanted in female NU/NU mice. Gray shadding starting at 0 days. indicates dosing window. FIG. 3B includes MTM20 at 21 mg/kg, FIG. 3C includes MTM20 at 15 mg/kg, FIG. 3D includes vehicle (control), FIG. 3E includes MTM (control) at 1 mg/kg, and FIG. 3F includes MTM (contro) at 0.65 mg/kg. Dosing route: IV bolus; Schedule: q2d×8.
Reference is made to FIGS. 4A and 4B, and Table 2, which include data from an efficacy/survival study involving exemplary compound MTM(20). TC-32 cells (EWS-FLI1+) were subcutaneously implanted in female NU/NU mice. FIG. 4A includes survival curves and FIG. 4B includes median survival plots of mice (n=6-7/group).
Further Efficacy Studies. Additional efficacy studies are ongoing with MTM20 at a daily schedule (total of 5 doses).
In comparison, nine of 10 tumor volumes, in the control group have increased by 50% or more and one increased approximately 15% above baseline.
In comparison all tumors in the control group grow by 30% or more relative to baseline.

[2] = target: T1, EWS-FLI1 (Homo sapiens, UniProt Q01543+Q01844); settings: Grohar et al. 2011; cited from earlier work
T1 sequence (Q01543 276-373 limits assumed): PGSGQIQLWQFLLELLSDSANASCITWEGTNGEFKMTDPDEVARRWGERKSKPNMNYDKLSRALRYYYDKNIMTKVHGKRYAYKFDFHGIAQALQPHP

[3] = Hematology profile in monkeys; settings: IV bolus 15 mg/kg
Protocol: Reference is made to FIGS. 7A-7F, which include include data for a hematology profile in monkeys. MTM and MTM20 were dosed as an IV bolus injection (10 mg/kg and 15 mg/kg) in two monkeys each to assess toxicity. […] Gray areas are reference values.

[4] = IV bolus pharmacokinetics in monkey; assay type: in vivo; settings: single monkey, IV bolus 10 mg/kg, 2-compartment modeling
Protocol: Reference is made to FIGS. 6A and 6B. MTM and exemplary compound MTM(20) were each administered as an IV bolus injection (10 mg/kg) to assess the pharmacokinetics in a single monkey. Estimation of the area under the curve (AUC) was done by 2-compartment modeling. MTM20 has ˜3-fold lower clearance (CL) than mithramycin, which corresponds to an equivalent increase in exposure as measured by the AUC.

[5] = Maximum tolerated dose, daily×5 schedule; assay type: in vivo, mice
[6] = tested on: TC32 Ewing sarcoma cells, expressing EWS-FLI1; experiment: Growth inhibition assay, TC32 cells; assay type: cell-based; settings: for PC:TC32 (cellular selectivity): ratio of GI50 PC3 to TC32
[7] = tested on: A-204 (ATTC Cat. No., HTB-82); Rhabdomyosarcoma (embryonal); experiment: Growth inhibition assay, A-204 cells; assay type: cell-based; settings: Table 1D
Protocol: (§1) Growth inhibition assay to assess cytotoxicity in ETS vs non-ETS expressing cells. Cells were seeded in clear 96-well plates (VWR, Radnor, PA). Seeding densities were optimized for each cell line to support 5 days of linear growth. Following a 24 hours attachment period, cells in duplicate wells were treated with half-log increments of respective compounds (0 nM and 0.3 nM-10 μM). Working stocks were prepared from an initial 10 mM drug stock diluted in either 100% ethanol or dimethyl sulfoxide (DMSO). All wells contained a final concentration of 0.1% (v/v) respective organic solvent. Immediately following treatment, cell viability was measured for vehicle control (Day 0) wells. Cell viability was measured in the remaining wells after 72 hours of incubation with compound or vehicle control (Day 3). For viability measurements, 0.1 mM resazurin (Sigma, St. Louis, MO) was added to wells and following 3 hours of incubation at 37° C., fluorescence readings (EM 560 nm, EX 590 nm) were recorded using a SpectraMax M5 plate reader (Molecular Devices, Sunnyvale, CA).
(§2) Percent viability, relative to the initial cell seeding concentration, was calculated by ((TreatmentDay3−Vehicle ControlDay0)/(Vehicle ControlDay3−Vehicle ControlDay0))×100. Percent cell viability was plotted as a function of compound concentration (Log [M]) and the data were fit using a 3-parameter non-linear model with fixed Hill slope constant and 4-parameter non-linear model with variable Hill slope constant. The model with the best curve fit was used to estimate the GI50 in GraphPad Prism 7.0 software (GraphPad Software, La Jolla, CA). The 3-parameter equation used was Y=Bottom+(Top−Bottom)/(1+10[…]((X−Log[IC50]))). The 4-parameter equation used was Y=Bottom+(Top−Bottom)/(1+10[…]((Log[IC50]−X)*Hillslope)). Top and Bottom are plateaus in the units of the Y-axis (response). IC50 is the response (Y-axis) halfway between Top and Bottom plateaus.
(§3) GI50 values were determined by pooling all available experiments and reported with 95% confidence interval, calculated from GraphPad Prism 7.0 software curve fit. All compounds were tested at least once in multi-well replicates and each experiment included one a control compound (i.e., MTM) to ensure the stable response of the cell lines. The selectivity index was estimated by determining the ratio of GI50 estimates between ETS fusion negative and ETS fusion positive cell lines.

[8] = tested on: G-401 (ATTC Cat. No., CRL-1441); Rhabdoid tumor of the kidney; experiment: Growth inhibition assay, G-401 cells; assay type: cell-based; settings: Table 1D
Protocol: as §1, §2, §3

[9] = tested on: PC3 Prostate Cancer Cells; experiment: Growth inhibition assay, PC3 cells; assay type: cell-based; settings: Table 1D
Protocol: as §1, with “3).” for “3). For viability measurements, 0.1 mM resazurin (Sigma, St. Louis, MO) was added to wells and following 3 hours of incubation at 37° C., fluorescence readings (EM 560 nm, EX 590 nm) were recorded using a SpectraMax M5 plate reader (Molecular Devices, Sunnyvale, CA).”
as §2
All compounds were tested at least once in multi-well replicates and each experiment included one a control compound (i.e., MTM) to ensure the stable response of the cell lines. The selectivity index was estimated by determining the ratio of GI50 estimates between ETS fusion negative and ETS fusion positive cell lines.

[10] = tested on: U-2 OS bone osteosarcoma; experiment: Growth inhibition assay, U-2 OS cells; assay type: cell-based; settings: Table 1D
Protocol: as §1, §2, §3

[11] = tested on: RH30 muscle rhabdomyosarcoma; experiment: Growth inhibition assay, RH30 cells; assay type: cell-based; settings: Table 1D
Protocol: as §1, §2, §3

With CO[C@H](C(=O)[C@@H](O)[C@@H](C)O)[C@@H]1Cc2cc3cc(O[C@H]4C[C@@H](O[C@H]5C[C@@H](O)[C@H](O)[C@@H](C)O5)[C@H](O)[C@@H](C)O4)c(C)c(O)c3c(O)c2C(=O)[C@H]1O[C@H]1C[C@@H](O[C@H]2C[C@@H](O[C@H]3C[C@](C)(O)[C@H](O)[C@@H](C)O3)[C@@H](O)[C@@H](C)O2)[C@H](O)[C@@H](C)O1 [MTM, Mithramycin] the “Significant? survival” value ([1]; MTM - MTD vs. MTM - 2/3MTD) was “No”, the “Significant? survival vs. Vehicle” value ([1]; at 2/3MTD) was “No” and the “Significant? survival vs. Vehicle” value ([1]; at MTD) was “No”. The “potency as inhibitor of EWS-FLI1 in Ewing sarcoma cells” value [2] was “low-nM” and the platelets counts [3] was “significant reduction in platelets counts”.
In the case of COC(=O)C(Cc1c[nH]c2ccccc12)NC(=O)CON=C(C(O)C(C)O)C(OC)C1Cc2cc3cc(OC4CC(OC5CC(O)C(O)C(C)O5)C(O)C(C)O4)c(C)c(O)c3c(O)c2C(=O)C1OC1CC(OC2CC(OC3CC(C)(O)C(O)C(C)O3)C(O)C(C)O2)C(O)C(C)O1 (centres unmarked) [MTM (20)], the “reduction in tumor volume” value ([1]; Experiment 1: 14.7 mg/kg (⅔ of MTD), daily schedule 5 doses, 2 days after end of treatment, 7 animals) is reported as “greater than 50%”, the “tumor volumes decreased, of the original tumor volume” value ([1]; Experiment 2: 24 mg/kg (full MTD) daily×5, following the 4th dose) is reported as 10-70% and the “Significant? survival” value ([1]; MTM20 - 2/3MTD vs. MTM - 2/3MT) is reported as “No”. For the same molecule, the “Significant? survival” value ([1]; MTM20 - 2/3MTD vs. MTM - MTD) was “No”, the “Significant? survival” value ([1]; MTM20 - MTD vs. MTM20 - 2/3MTD) was “No” and the “Significant? survival” value ([1]; MTM20 - MTD vs. MTM - 2/3MTD) was “No”. The “Significant? survival” value ([1]; MTM20 - MTD vs. MTM - MTD) was “No”, the “Significant? survival vs. Vehicle” value ([1]; at 2/3MTD) was “Yes” and the “Significant? survival vs. Vehicle” value ([1]; at MTD) was “Yes”. The “initial response with new dosing schedules” value ([1]; daily schedule (5 doses) compared to q2Dx8) was “significantly improved”, the “predicted efficacy of standard clinical dosing regimen” value ([1]; daily×5×2 weeks (qDx5×2w)) was “notably efficacious and potentially curative” and the “lower clearance (CL) than mithramycin” value [4] was about 3 fold. For the same molecule, the “full MTD of the daily×5 schedule” value [5] was 24 mg/kg and the “PC:TC32 (cellular selectivity)” value [6] was 24.5.
For CNC(=O)[C@H](Cc1c[nH]c2ccccc12)NC(=O)CO/N=C(\[C@@H](O)[C@@H](C)O)[C@@H](OC)[C@@H]1Cc2cc3cc(O[C@H]4C[C@@H](O[C@H]5C[C@@H](O)[C@H](O)C(C)O5)[C@H](O)C(C)O4)c(C)c(O)c3c(O)c2C(=O)[C@H]1O[C@H]1C[C@@H](O[C@H]2C[C@@H](O[C@H]3C[C@](C)(O)[C@H](O)C(C)O3)[C@H](O)C(C)O2)[C@H](O)C(C)O1 (some centres unmarked) [MTM (40)], the EC50 [7] was 256 nM, the EC50 [8] was 40.2 nM and the EC50 ([6]; Table 1D, read-out: TC-32 Mean EC50) was 414 nM. The “PC:TC32 (cellular selectivity)” value [6] was 11.8, the EC50 [9] was 2900 nM and the EC50 [10] was over 10000 nM. The EC50 [11] was 1200 nM.
